pIC50: −log10 of the molar value.
What was measured:
Assay type in all cases: cell-based
OCI-LY-19 = assay: 5-day viable cell number and apoptosis (7-AAD exclusion/Annexin V flow cytometry); details: Homo sapiens, OCI-LY19; OCI-LY-19 cells (Table 3); read-out: IC50
Text: (§1) The DLBCL panel includes seven cell lines classified as activated B-cell (ABC) subtype, thirteen cell lines classified as the germinal center B-cell (GCB) subtype, and three cell lines classified as primary mediastinal B-cell lymphoma (PMBL). […] The translocation of MYC, BCL6, or BCL2 to an IG locus usually leads to high levels of mRNA and protein due to the active transcription driven by a constitutively active IG promoter. […] Expressions of CRBN protein and known substrates, Ikaros, Aiolos, and ZFP91 were also evaluated (FIG. 1, panels B and C).
(§2) The panel of cell lines were treated with increasing doses of compounds for five days, at which time the number of viable cells was measured and the amount of apoptosis was determined by 7-AAD exclusion and Annexin V staining using flow cytometry.

RC-K8 = assay: as above; details: Homo sapiens, RCK8; RC-K8 cells (Table 3); read-out: IC50
Text: as §1, §2

KARPAS-1106P = assay: as above; details: Homo sapiens; KARPAS-1106P cells (Table 3); read-out: IC50
Text: as §1, §2

SU-DHL-8 = assay: as above; details: Homo sapiens; SU-DHL-8 cells (Table 3); read-out: IC50
Text: as §1, §2

OCI-LY-7 = assay: as above; details: Homo sapiens, OCI-Ly7; OCI-LY-7 cells (Table 3); read-out: IC50
Text: as §1, §2

OCI-LY-3 = assay: as above; details: Homo sapiens, OCI-Ly3; OCI-LY-3 cells (Table 3)
Text: as §1, §2

DLBCL cell lines = assay: Panel of twenty three DLBCL cell lines, 5-day viable cells and apoptosis; details: panel of twenty three cell lines
Description: Compound 1 activity was evaluated in a panel of twenty three DLBCL cell lines. The DLBCL panel includes seven cell lines classified as activated B-cell (ABC) subtype, thirteen cell lines classified as the germinal center B-cell (GCB) subtype, and three cell lines classified as primary mediastinal B-cell lymphoma (PMBL). […] Thus, eleven cell lines have a t(8;14)(q24;q32) and/or t(14;18)(q32;q21.3), corresponding to MYC and BCL2 gene rearrangements into an immunoglobulin (IG) heavy chain locus as well as additional rearrangements affecting BCL6 (Table 1). The translocation of MYC, BCL6, or BCL2 to an IG locus usually leads to high levels of mRNA and protein due to the active transcription driven by a constitutively active IG promoter. Therefore, the protein levels of these genes were monitored by Western blots, confirming the overexpression of BCL2, MYC, and/or BCL6 in all the cell lines evaluated (FIG. 1, panel A). Expressions of CRBN protein and known substrates, Ikaros, Aiolos, and ZFP91 were also evaluated (FIG. 1, panels B and C).
as §2, with “cytometry. […] Overall, the sensitivity to Compound 1 was independent of cell of origin (COO), since ABC, GCB, and PMBL subtypes were sensitive to Compound 1 (Table 2).” for “cytometry.”

WSU-DLCL2 M-Parental = assay: Viable cells/apoptosis in doxorubicin-resistant and matching parental lines; details: Homo sapiens, WSUDLCL2, read-out: Doxorubicin IC50
Description: (§3) The activity of Compound 1 was also evaluated in cell lines with acquired resistance to doxorubicin (Table 4). Doxorubicin-resistant cell lines (DoxoR) were generated by culturing the parental cell lines in vitro with increasing concentrations of doxorubicin for a long period of time (˜9 to 18 months) until they were able to grow in the presence of a relatively high concentration of doxorubicin (1 μM). Matching parental (M-Parent) cells were generated by maintaining the parental cells in culture without treatment for the same amount of time (˜9 to 18 months). The growth-inhibitory effect of doxorubicin on parental cells and the corresponding resistant cells was evaluated by measuring the number of viable cells and extent of apoptosis by 7-AAD exclusion and Annexin V staining using flow cytometry.
(§4) The effects of Compound 1 on the viability of doxorubicin-resistant versus parental cell lines was determined (FIG. 2; Table 5).

Oci-Ly10 DoxoR = assay: as above; details: Homo sapiens; Oci-Ly10 DoxoR; read-out: Doxorubicin IC50
Description: as §3, §4

SU-DHL-4 M-Parental = assay: as above; details: Homo sapiens, read-out: Doxorubicin IC50
Description: as §3, §4

U2932 DoxoR = assay: as above; details: Homo sapiens; U2932 DoxoR; read-out: Doxorubicin IC50
Description: as §3, §4

Oci-Ly10 M-Parental = assay: as above; details: Homo sapiens; Oci-Ly10 M-Parental; read-out: Doxorubicin IC50
Description: as §3, §4

WSU-DLCL2 DoxoR = assay: as above; details: Homo sapiens, WSUDLCL2, read-out: Doxorubicin IC50
Description: as §3, §4

U2932 M-Parental = assay: as above; details: Homo sapiens, read-out: Doxorubicin IC50
Description: as §3, §4

SU-DHL-4 DoxoR = assay: as above; details: Homo sapiens; SU-DHL-4 DoxoR; read-out: Doxorubicin IC50
Description: as §3, §4

- pIC50 (OCI-LY-19): 5.70
- pIC50 (KARPAS-1106P): 5.77
- pIC50 (SU-DHL-8): 6.22
- pIC50 (OCI-LY-7): 5.30
- pIC50 (OCI-LY-3): 4.94
Structure (SMILES): COc1cccc2c1C(=O)c1c(O)c3c(c(O)c1C2=O)C[C@@](O)(C(=O)CO)C[C@@H]3O[C@H]1C[C@H](N)[C@H](O)[C@H](C)O1 [Doxorubicin, reference compound]
- pIC50 (RC-K8): 5.46
- sensitivity of all DLBCL cell lines (DLBCL cell lines): strongly sensitive
- pIC50 (WSU-DLCL2 M-Parental): 8.00
- pIC50 (Oci-Ly10 DoxoR): 5.85
- pIC50 (SU-DHL-4 M-Parental): 8.00
- pIC50 (U2932 DoxoR): 5.97
- pIC50 (Oci-Ly10 M-Parental): 7.70
- pIC50 (WSU-DLCL2 DoxoR): 5.80
- pIC50 (U2932 M-Parental): 8.00
- pIC50 (SU-DHL-4 DoxoR): 5.82

— US20210116454A1, “METHODS FOR TREATING A HEMATOLOGICAL CANCER AND THE USE OF COMPANION BIOMARKERS FOR 2-(2,6-DIOXOPIPERIDIN-3-YL)-4-((2-FLUORO-4-((3-MORPHOLINOAZETIDIN-1-YL)METHYL)BENZYL)AMINO)ISOINDOLINE-1,3-DIONE” (CELGENE CORPORATION, priority 2019, published 2021)
